We go through 10 compounds from publication PMC3003262 (Drug development research, 2010).

Assay [1] addresses T1, human CB1 P269A mutant receptor (Homo sapiens, UniProt P21554, P269A). The experiment in a line: biochemical. In kind it is binding.
For assay [2], the target named is human CB1 H270A mutant receptor (Homo sapiens, UniProt P21554, H270A). The experiment in a line: biochemical. In kind it is binding.
Assay [3] concerns the target T2, human CB1 F268W mutant receptor (Homo sapiens, UniProt P21554, F268W). As to the kind of experiment: biochemical. As to conditions: for loss in affinity relative to wild-type receptor: F268W receptor vs WT. It counts as binding.
Assay [4] addresses T3, human CB1 I271A mutant receptor (Homo sapiens, UniProt P21554, I271A). The experiment in a line: biochemical. In kind it is binding. The following applies: for loss in affinity relative to wild-type receptor: I271A receptor vs WT.
Assay [5] has as its target T4, human CB1 wild-type (WT) receptor (Homo sapiens, UniProt P21554). As to the kind of experiment: Competition binding with [3H]SR141716A, wild-type CB1 membranes.
Assay [6] has as its target T3, human CB1 I271A mutant receptor. As to conditions: cited from earlier work.
Assay [7] concerns the target T1, human CB1 P269A mutant receptor. As to conditions: cited from earlier work.
For assay [8], the target named is T4, human CB1 wild-type (WT) receptor. The following applies: cited from earlier work.
Assay [9] deals with T2, human CB1 F268W mutant receptor. As to conditions: cited from earlier work.

Like-named read-outs stand apart in the source and are kept apart here.

human CB1 H270A mutant receptor, sequence (P21554 whole entry H270A): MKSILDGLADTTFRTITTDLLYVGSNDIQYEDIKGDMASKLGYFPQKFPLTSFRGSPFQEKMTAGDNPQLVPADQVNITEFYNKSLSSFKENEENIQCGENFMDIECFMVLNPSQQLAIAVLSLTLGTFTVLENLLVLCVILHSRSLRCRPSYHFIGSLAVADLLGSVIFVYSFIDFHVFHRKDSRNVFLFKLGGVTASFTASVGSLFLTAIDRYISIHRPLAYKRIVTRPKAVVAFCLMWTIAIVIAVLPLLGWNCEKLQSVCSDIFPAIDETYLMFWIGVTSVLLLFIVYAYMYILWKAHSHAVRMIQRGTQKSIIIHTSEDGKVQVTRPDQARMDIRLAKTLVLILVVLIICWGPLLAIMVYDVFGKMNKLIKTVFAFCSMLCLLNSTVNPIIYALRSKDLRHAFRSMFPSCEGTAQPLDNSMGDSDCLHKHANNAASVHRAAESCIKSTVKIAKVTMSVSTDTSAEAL
T4 sequence (P21554 whole entry): as the sequence (P21554 whole entry H270A) above, with A270H counted along it
T2 sequence (P21554 whole entry F268W): as the sequence (P21554 whole entry H270A) above, with F268W, A270H counted along it
T3 sequence (P21554 whole entry I271A): as the sequence (P21554 whole entry H270A) above, with A270H, I271A counted along it
T1 sequence (P21554 whole entry P269A): as the sequence (P21554 whole entry H270A) above, with P269A, A270H counted along it

The Ki is the dissociation constant of the complex between target and ligand, obtained from inhibition or displacement. Turning to `CCCCCc1ccc(-c2c(C)c(C(=O)NN3CCCCC3)nn2-c2ccc(Cl)cc2Cl)cc1` [O-1302, [I]N[/I]-(piperidin-1-yl)-1-(2,4-dichlorophenyl)-4-methyl-5-(4-pentylphenyl)-1H-pyrazole-3-carboxamide], the Ki in [1] came out at 0.0011 µM; in assay [2], 0.0026 µM; in assay [3] it was 0.0262 µM; in [4], 0.0384 µM.
Turning to `CC1=CCC2C(C1)c1c(O)cc(C(C)(C)C)cc1OC2(C)C` (stereo not drawn) [JWH179, 3-(1′,1′-dimethylethyl)-Δ8-tetrahydrocannabinol], the Ki in assay [1] is 0.798 µM; in assay [2], 0.09 µM; in [3] it was 1.11 µM; in assay [4], 0.194 µM.
As to `CCCCC(C)c1ccc(-c2c(-c3ccc(Cl)cc3Cl)nn(N3CCCCC3)c2C)cc1` (stereo not drawn) [O-1690, N-(N-piperdyl)-3-(2,4-dichlrophenyl)-4-(4′-(1′-methylpentyl)phenyl)-5-methylpyrazole], the inhibition constant (Ki) in assay [1] stood at 0.00096 µM; in assay [2], 0.002 µM; in assay [3], 0.0233 µM; in [4], 0.0773 µM.
Take `CCCCC(C)(C)c1cc(O)c2c(c1)OC(C)(C)C1CC=C(C)CC21` (stereo not drawn) [JWH061, 3-(1′,1′-dimethylpentyl)-Δ;8-tetrahydrocannabinol]: the Ki in assay [1] came to 1.73 µM; in [2], 0.373 µM; in assay [3], 3.46 µM; in [4] it was 0.773 µM.
Consider `CCCCCc1ccc(-n2nc(C(=O)NN3CCCCC3)c(C)c2-c2ccc(Cl)cc2)cc1` [O-1255], for which the Ki was determined as 0.0747 µM in [1], 0.113 µM in assay [2], 0.31 µM in [3] and 0.46 µM in assay [4]. Besides, the “loss in affinity relative to wild-type receptor” value in [3] was determined as 4 fold; in [4], 6 fold.
Consider `CC1=CC[C@@H]2[C@@H](C1)c1ccc(CC#CCCCNS(C)(=O)=O)cc1OC2(C)C` [O-2050, (6aR,10aR)-3-(1-methanesulfonylamino-4-hexyn-6-yl)-6a,7, 10,10a-tetrahydro-6,6,9-trimethyl-6H-dibenzo[b,d]pyran], for which the Ki in assay [1] is 0.0686 µM; in assay [2], 0.0402 µM; in [3], 0.148 µM; in [4], 0.166 µM; in assay [5], 0.0034 µM. Besides, the “reduced affinity relative to wild-type receptor” value in assay [1] (P269A receptor vs WT) stood at 20 fold; in [2] (H270A receptor vs WT), 12 fold. For the same compound, the “loss in affinity relative to wild-type receptor” value in assay [3] was determined as 44 fold; in [4], 49 fold.
For the compound `CS(=O)(=O)N(c1cc(F)cc(F)c1)C1CN(C(c2ccc(Cl)cc2)c2ccc(Cl)cc2)C1` [AVE1625, N-{1-[bis(4-chloro-phenyl)-methyl]azetidin-3-yl}-N-(3,5-difluorophenyl)methanesulfonamide], the Ki came out at 0.00088 µM in assay [1]; 0.0012 µM in assay [2]; 0.0022 µM in [3]; 0.0018 µM in assay [4]; 0.00064 µM in assay [5]. Moreover, the “loss in affinity relative to wild-type receptor” value in assay [3] and in [4] was 3 fold in each case.
For the compound `O=C(NN1CCCCC1)c1nn(-c2ccc(Cl)cc2Cl)c2c1CCCc1cc(Cl)ccc1-2` [NESS0327], the Ki in [1] is 0.003 µM; in [2], 0.0061 µM; in [3], 0.021 µM; in assay [4], 0.0112 µM. Besides, in assay [3], the “loss in affinity relative to wild-type receptor” value came out at 5 fold.
Consider `CCCCCCC(C)(C)c1cc(O)c2c(c1)OC(C)(C)[C@@H]1CC=C(CO)C[C@@H]21` [HU-210, (−)-11-hydroxydimethylheptyl-Δ8-tetrahydrocannabinol], for which the Ki was 0.31 µM in assay [6]; 0.0226 µM in assay [7]; 0.0138 µM in [2]; 0.0037 µM in [8]; 1.67 µM in assay [9].
On to `N#Cc1c(Oc2cccc(OS(=O)(=O)CCCC(F)(F)F)c2)cccc1C(F)(F)F` [BAY593074, 3-[2-cyano-3-(trifluoromethyl)phenoxy]phenyl-4,4,4-trifluoro-1-butanesulfonate], for which the Ki was 0.341 µM in assay [1]; 0.412 µM in [2]; 1.86 µM in assay [3]; 2.87 µM in assay [4]; 0.249 µM in [5]. Further, the “binding affinity diminished relative to wild-type receptor (up to)” value in assay [4] is “up to 12 fold”.
